Data on one compound can be found in paper PMC7139549, “TLD1433 Photosensitizer Inhibits Conjunctival Melanoma Cells in Zebrafish Ectopic and Orthotopic Tumour Models” (Cancers, 2020).

The structures appear in SMILES notation. Read-outs that look alike come from different tables or passages of the source.

Experiment [1] deals with CRMM2 conjunctival melanoma cell line. In words: SRB cell viability assay, CRMM2. The class given is cell-based, Human. The protocol: (§1) TLD1433 is known to generate reactive oxygen species (ROS) with high quantum efficacy in many cancer cell lines. However, there is no report of the in vitro toxicity of this compound in eye melanoma (UM) cell lines. We determined the cell viability of three conjunctival melanoma cell lines (CRMM1, CRMM2 and CM2005.1), and three uveal melanoma cell lines (OMM1, OMM2.5, MEL270) in the presence of TLD1433, both in the dark or under green light irradiation (21 mW/cm^2, 19 J/cm^2, 520 nm, 15 min), and compared this viability to epidermoid carcinoma A431 and cutaneous melanoma A375 cell lines under the same conditions. The protocol used was based on previous work from the Bonnet group, and differed slightly from recommendations from McFarland et al.. […] The effective concentration (EC50) values, i.e., the concentration required to reduce cell viability by 50% compared to untreated wells, were assessed by fitting the dose-response curves with a Hill equation. The phototoxicity index (PI), defined as the ratio of the dark EC50 to the light EC50, was also calculated and represents the amplification of TLD1433 activity with a light trigger. […]
(§2) Figure 2 Cell viability after TLD1433 treatment of eight tumour cell lines (CRMM1, CRMM2, CM2005.1, OMM1, OMM2.5, MEL270, A431, A375). […] The absorbance of Sulforhodamine B in solution was measured at 520 nm. […]
(§3) At day 0, cells were detached using 1mL of trypsin, resuspended in 4 mL of media and transferred to a 15 mL corning falcon tube. Cells were counted using trypan blue and BioRad® TC20™ automated cell counter (Figure 11). Dilutions of 6000 (CRMM1), 6000 (CRMM2), 8000 (CM2005.1), 6000 (OMM1), 6000 (OMM2.5), 6000 (MEL270) 8000 (A431), and 4000 (A375) cells/well were calculated from each cell suspension at a final volume of 6 mL using the following formula: Vc=(Vt×10C)/Lc where Vt = total volume of solution, C = number of cells per well/per 100 μL and Lc = live cells count (cells/mL). […] Next day, the dye was dissolved using Tri-base (0.25%) and absorbance of SRB at 510 nm was recorded from each well using a Tecan plate reader. […]

Experiment [2] relates to MEL270 uveal melanoma cell line. Kind of experiment: SRB cell viability assay, MEL270. The experiment is classed as cell-based, Human. How it is done:
as §1, §2, §3

The EC50 is the concentration at which the effect is half-maximal. As to `Cc1ccnc(-c2cc(C)ccn2)c1.Cc1ccnc(-c2cc(C)ccn2)c1.[Cl-].[Cl-].[Ru+2].c1csc(-c2ccc(-c3ccc(-c4nc5c6cccnc6c6ncccc6c5[nH]4)s3)s2)c1` [TLD1433], the EC50 worked out at 1000 nM in experiment [1] (CRMM2, dark, 24 h treatment, SRB, read-out: EC50, dark); 4.8 nM in experiment [1] (CRMM2, green light 520 nm, 15 min, 21 mW/cm^2, 19 J.cm^−2, DLI 24 h, read-out: EC50,light); 1100 nM in experiment [2] (MEL270, dark, 24 h treatment, SRB, read-out: EC50, dark); 10 nM in experiment [2] (MEL270, green light 520 nm, 15 min, 21 mW/cm^2, 19 J.cm^−2, DLI 24 h, read-out: EC50,light). In addition, the “PI (photo index)” value turned out to be 210 in experiment [1] (CRMM2, ratio of dark and light EC50, 19 J.cm^−2 green light); 110 in experiment [2] (MEL270, ratio of dark and light EC50, 19 J.cm^−2 green light).
